According to the NIST ThermoML archive (doi:10.1016/j.jct.2016.02.017):
± gives the expanded uncertainty stated by the source.

Experiment: Boiling temperature at pressure P
Conditions: Liquid, Ebulliometric method (Recirculating still)

O [water]
Conditions	Boiling temperature at pressure P [°C]
12.1 kPa	50.7 ± 4
25.8 kPa	67.2 ± 4
41.8 kPa	78.7 ± 4
59.7 kPa	85.5 ± 4
74.1 kPa	91.2 ± 4
91.8 kPa	97.7 ± 4
